From US20080312291A1, “Heterocyclic Gaba-b Modulators” (priority 2005, published 2008) come the findings set out here.

In the assay the target is T1, GABABR1a/GABABR2 heterodimer (Homo sapiens, UniProt O75899+Q9UBS5).
T1 construct: expressed in transfected cells; membranes prepared from it)
As to the kind of experiment: [35S]-GTPγS binding assay, potency of PAM. The class given is biochemical. To be noted: potency of the positive allosteric modulator; log EC50 for GABA plotted against log concentration of modulator. An excerpt: GABABR1a and GABABR2 were cloned from human brain cDNA and subcloned into pCI-Neo(Promega) and pALTER-1 (Promega), respectively. A GABABR1a-Gαqi5 fusion protein expression vector was constructed using the pCI-Neo-GABABR1a cDNA plasmid and pLEC1-Gαqi5 (Molecular Devices, CA). In order to make the Gαqi5 pertussis toxin insensitive, Cys356 was mutated to Gly using standard PCR methodology with the primers 5′-[…]-3′ (forward) and 5′-GCGGCCG […]-3′ (reverse). The Gαqi5mut cDNA was ligated into the BamHI and NotI sites of pcDNA3.0 (Invitrogen). The GABAB R1a coding sequence was amplified by PCR from pCI-Neo-GABABR1a using the primers, 5′-[…]-3′ (forward) and 5′-[…]-3′ (reverse) and subcloned into the BamHI site of pcDNA3.0-Gαqi5mut. […]
[^35S]-GTPγS binding assays were performed at 30° C. for 45 min in membrane buffer (100 mM NaCl, […], 1 mM EDTA, 5 mM HEPES, pH 7.4) containing 0.025 μg/μl of membrane protein (prepared from the cell lines described above) with 0.01% bovine serum albumin (fatty acid free), 10 μM GDP, 100 μM DTT and 0.53 nM [^35S]-GTPγS (Amersham Pharmacia Biotech) in a final volume of 200 μl. Nonspecific binding was determined in the presence of 20 μM GTPγS. […]

T1 sequence (Q9UBS5 15-961 limits assumed): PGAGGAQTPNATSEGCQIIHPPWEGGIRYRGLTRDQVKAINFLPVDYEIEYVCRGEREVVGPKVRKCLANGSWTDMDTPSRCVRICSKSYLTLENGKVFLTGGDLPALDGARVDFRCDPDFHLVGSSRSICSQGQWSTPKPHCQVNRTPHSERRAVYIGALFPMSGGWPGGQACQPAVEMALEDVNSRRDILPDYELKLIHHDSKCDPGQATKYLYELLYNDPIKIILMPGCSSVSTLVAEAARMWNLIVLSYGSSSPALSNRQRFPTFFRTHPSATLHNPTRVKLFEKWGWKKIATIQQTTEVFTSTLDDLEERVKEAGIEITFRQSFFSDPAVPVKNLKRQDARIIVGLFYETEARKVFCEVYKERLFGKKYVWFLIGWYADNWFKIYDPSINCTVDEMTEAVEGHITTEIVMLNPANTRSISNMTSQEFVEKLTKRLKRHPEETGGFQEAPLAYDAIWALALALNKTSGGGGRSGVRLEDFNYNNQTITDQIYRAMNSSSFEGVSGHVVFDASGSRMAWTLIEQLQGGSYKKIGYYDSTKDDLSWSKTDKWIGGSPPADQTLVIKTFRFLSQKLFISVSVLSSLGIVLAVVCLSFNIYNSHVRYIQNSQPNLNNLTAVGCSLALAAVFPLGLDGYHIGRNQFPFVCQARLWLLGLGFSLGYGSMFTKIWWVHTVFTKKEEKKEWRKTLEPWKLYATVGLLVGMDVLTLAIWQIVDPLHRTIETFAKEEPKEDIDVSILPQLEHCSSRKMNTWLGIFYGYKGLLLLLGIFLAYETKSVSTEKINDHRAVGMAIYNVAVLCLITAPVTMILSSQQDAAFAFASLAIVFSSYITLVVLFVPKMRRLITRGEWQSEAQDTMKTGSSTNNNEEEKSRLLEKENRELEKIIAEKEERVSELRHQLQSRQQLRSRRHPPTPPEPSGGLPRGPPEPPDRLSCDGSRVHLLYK
T1 sequence (O75899 42-941): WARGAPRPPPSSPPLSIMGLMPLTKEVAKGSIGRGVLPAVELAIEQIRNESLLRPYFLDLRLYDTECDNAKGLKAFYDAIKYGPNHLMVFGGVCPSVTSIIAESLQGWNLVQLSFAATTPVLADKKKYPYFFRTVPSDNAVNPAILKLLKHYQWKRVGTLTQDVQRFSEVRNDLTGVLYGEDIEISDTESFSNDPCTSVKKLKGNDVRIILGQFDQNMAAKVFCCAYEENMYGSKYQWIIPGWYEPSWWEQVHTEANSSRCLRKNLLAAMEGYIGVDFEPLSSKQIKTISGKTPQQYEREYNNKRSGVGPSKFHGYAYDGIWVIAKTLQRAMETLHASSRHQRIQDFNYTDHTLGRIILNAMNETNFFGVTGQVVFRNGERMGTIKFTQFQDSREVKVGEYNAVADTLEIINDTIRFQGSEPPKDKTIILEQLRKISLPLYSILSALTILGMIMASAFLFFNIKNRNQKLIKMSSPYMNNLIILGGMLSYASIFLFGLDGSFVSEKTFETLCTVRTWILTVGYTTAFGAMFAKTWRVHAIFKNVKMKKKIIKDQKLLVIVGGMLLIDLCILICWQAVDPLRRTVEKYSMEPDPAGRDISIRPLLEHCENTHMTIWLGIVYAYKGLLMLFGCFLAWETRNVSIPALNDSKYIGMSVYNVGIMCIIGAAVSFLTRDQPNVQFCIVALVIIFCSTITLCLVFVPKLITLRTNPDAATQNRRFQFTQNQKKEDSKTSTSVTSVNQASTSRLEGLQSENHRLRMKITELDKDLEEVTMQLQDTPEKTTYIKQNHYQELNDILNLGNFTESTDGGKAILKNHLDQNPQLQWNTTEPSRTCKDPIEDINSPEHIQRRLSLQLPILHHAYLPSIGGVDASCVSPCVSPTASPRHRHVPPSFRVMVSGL

As a reminder, the EC50 is the concentration that produces a half-maximal response. In turn, `CCOC(=O)c1nc(C(C)C)sc1NC(=O)C(CC)c1ccccc1` (centres unmarked) [Example 16, Ethyl 2-isopropyl-5-[(2-phenylbutanoyl)amino]-1,3-thiazole-4-carboxylate] came in with an EC50 of 1.96 µM.
The figure for `CCOC(=O)c1nc(C(C)C)oc1NC(=O)c1ccc(C(C)(C)C)cc1` [Example 21, Ethyl 5-[(4-tert-butylbenzoyl)amino]-2-isopropyl-1,3-oxazole-4-carboxylate] is 7.23 µM.
